Assays:
[1] = molecular target: T1, Human δ-opioid (DOP) (Homo sapiens, UniProt P41143); experiment: Radioligand binding, human δ-opioid (DOP) membranes, FlashPlate, [3H]-Bremazocine; settings: compound at 10 μM, [3H]-Bremazocine
T1 construct: purchased Perkin Elmer Biosignal
In short: (§1)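 Cloned human receptor membranes were coated onto FlashPlate wells and incubated with radioligand and compound (added from a 0.5 mM DMSO daughter plate) for 1 hour at room temperature in the dark. Scintillation counting gave percent inhibition, with DMSO defining total and reference ligand defining non-specific binding.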

[2] = molecular target: T2, Human κ-Opioid (KOP) (Homo sapiens, UniProt P41145); experiment: Radioligand binding, human κ-opioid (KOP) membranes, filtration, [3H]-Diprenorphine; settings: compound at 10 μM, [3H]-Diprenorphine
T2 construct: purchased Perkin Elmer Biosignal
In short: (§2)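 Membranes from cloned human receptors were incubated with compound and radioligand for 1 hour at room temperature. Bound ligand was collected on 0.3% PEI-soaked filters, washed with cold 50 mM Tris-HCl pH 7.4, and counted by scintillation. Percent inhibition was computed against DMSO totals and reference-ligand nonspecific wells.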

[3] = molecular target: T3, Human Melanocortin (MC3) (Homo sapiens, UniProt P41968); experiment: Radioligand binding, human melanocortin MC3 membranes, FlashPlate, [125I]-NDP-αMSH; settings: compound at 10 μM, [125I]-NDP-αMSH
T3 construct: purchased Perkin Elmer Biosignal
In short: as §1

[4] = molecular target: T4, Human Melanocortin (MC4) (Homo sapiens, UniProt P32245); experiment: Radioligand binding, human melanocortin MC4 membranes, FlashPlate, [125I]-NDP-αMSH; settings: compound at 10 μM, [125I]-NDP-αMSH
T4 construct: purchased Perkin Elmer Biosignal
In short: as §1

[5] = molecular target: T5, Human melanocortin (MC5) (Homo sapiens, UniProt P33032); experiment: Radioligand binding, human melanocortin MC5 membranes, FlashPlate, [125I]-NDP-αMSH; settings: compound at 10 μM, [125I]-NDP-αMSH
T5 construct: purchased Perkin Elmer Biosignal
In short: as §1

[6] = molecular target: T6, Human melanin-concentrating hormone (MCH1) (Homo sapiens, UniProt Q99705); experiment: Radioligand binding, human melanin-concentrating hormone MCH1 membranes, FlashPlate, [125I]-S36057; settings: compound at 10 μM
T6 construct: purchased Perkin Elmer Biosignal
In short: as §1

[7] = molecular target: T7, Human μ-opioid (MOP) (Homo sapiens, UniProt P35372); experiment: Radioligand binding, human μ-opioid (MOP) membranes, FlashPlate, [3H]-Naloxone; settings: compound at 10 μM, [3H]-Naloxone
T7 construct: purchased Perkin Elmer Biosignal
In short: as §1

[8] = molecular target: T8, Human neurokinin (NK1) (Homo sapiens, UniProt P25103); experiment: Radioligand binding, human neurokinin NK1 membranes, filtration, [125I]-Substance P; settings: compound at 10 μM, [125I]-Substance P
T8 construct: purchased Perkin Elmer Biosignal
In short: as §2

[9] = molecular target: T9, Human neuropeptide Y (NPY-Y1) (Homo sapiens, UniProt P25929); experiment: Radioligand binding, human neuropeptide Y NPY-Y1 membranes, FlashPlate, [125I]-PYY; settings: compound at 10 μM, [125I]-PYY
T9 construct: purchased Perkin Elmer Biosignal
T9 sequence (P25929 1-384): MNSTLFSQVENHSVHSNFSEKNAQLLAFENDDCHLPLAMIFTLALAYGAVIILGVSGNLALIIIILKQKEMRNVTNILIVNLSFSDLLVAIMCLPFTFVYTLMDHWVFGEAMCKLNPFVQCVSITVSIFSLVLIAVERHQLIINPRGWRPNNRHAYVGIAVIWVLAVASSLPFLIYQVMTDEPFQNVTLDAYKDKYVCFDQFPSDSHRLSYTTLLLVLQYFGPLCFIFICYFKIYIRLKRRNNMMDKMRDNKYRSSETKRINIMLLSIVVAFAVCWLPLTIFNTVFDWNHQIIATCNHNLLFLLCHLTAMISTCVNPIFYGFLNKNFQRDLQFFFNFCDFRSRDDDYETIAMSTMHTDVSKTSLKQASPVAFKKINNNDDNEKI
In short: as §1

[10] = molecular target: T10, Human opioid (ORL1) (Homo sapiens, UniProt P41146); experiment: Radioligand binding, human opioid ORL1 membranes, FlashPlate, [125I]-Nociceptin; settings: compound at 10 μM, [125I]-Nociceptin
T10 construct: purchased Perkin Elmer Biosignal
In short: as §1

[11] = molecular target: T11, Mouse urotensin (mUR2) (Mus musculus, UniProt Q8VIH9); experiment: Radioligand binding, mouse urotensin mUR2 membranes, FlashPlate, [125I]-Urotensin II; settings: compound at 10 μM, [125I]-Urotensin II
T11 construct: purchased Perkin Elmer Biosignal
T11 sequence (Q8VIH9 1-385): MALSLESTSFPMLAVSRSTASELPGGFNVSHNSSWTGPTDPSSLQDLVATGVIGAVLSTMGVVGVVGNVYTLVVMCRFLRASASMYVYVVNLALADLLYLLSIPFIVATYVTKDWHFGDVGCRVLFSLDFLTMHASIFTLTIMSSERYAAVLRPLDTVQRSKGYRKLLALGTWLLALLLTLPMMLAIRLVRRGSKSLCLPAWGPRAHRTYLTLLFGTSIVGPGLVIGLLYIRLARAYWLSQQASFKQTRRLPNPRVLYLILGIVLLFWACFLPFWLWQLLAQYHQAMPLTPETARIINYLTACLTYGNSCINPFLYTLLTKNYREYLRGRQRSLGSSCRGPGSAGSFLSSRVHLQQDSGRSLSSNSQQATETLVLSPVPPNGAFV
In short: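 Cloned mouse urotensin (mUR2) receptor membranes from Perkin Elmer Biosignal were immobilized in FlashPlate microplates using a proprietary coating. Each well got 19.5 μl buffer, then 0.5 μl of DMSO, reference ligand, or compound. Adding 5 μl of [125I]-Urotensin II, diluted to 5× final concentration in binding buffer, started binding. Plates were sealed with TopSeal-A and incubated 1 hour at room temperature in the dark. Wells were counted for 30 seconds each on a TopCount after a 60-second delay, and percentage inhibition was calculated.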

T10 sequence (P41146 whole entry): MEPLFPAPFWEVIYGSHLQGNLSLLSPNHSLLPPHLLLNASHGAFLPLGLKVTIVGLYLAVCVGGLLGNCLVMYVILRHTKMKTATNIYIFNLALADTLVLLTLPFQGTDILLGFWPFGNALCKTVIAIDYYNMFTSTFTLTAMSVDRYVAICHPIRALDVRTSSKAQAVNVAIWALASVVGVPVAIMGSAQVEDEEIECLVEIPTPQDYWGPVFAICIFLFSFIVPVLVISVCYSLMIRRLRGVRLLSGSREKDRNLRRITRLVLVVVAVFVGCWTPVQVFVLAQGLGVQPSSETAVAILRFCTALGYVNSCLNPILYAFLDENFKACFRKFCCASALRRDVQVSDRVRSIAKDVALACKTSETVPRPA
T7 sequence (P35372 whole entry): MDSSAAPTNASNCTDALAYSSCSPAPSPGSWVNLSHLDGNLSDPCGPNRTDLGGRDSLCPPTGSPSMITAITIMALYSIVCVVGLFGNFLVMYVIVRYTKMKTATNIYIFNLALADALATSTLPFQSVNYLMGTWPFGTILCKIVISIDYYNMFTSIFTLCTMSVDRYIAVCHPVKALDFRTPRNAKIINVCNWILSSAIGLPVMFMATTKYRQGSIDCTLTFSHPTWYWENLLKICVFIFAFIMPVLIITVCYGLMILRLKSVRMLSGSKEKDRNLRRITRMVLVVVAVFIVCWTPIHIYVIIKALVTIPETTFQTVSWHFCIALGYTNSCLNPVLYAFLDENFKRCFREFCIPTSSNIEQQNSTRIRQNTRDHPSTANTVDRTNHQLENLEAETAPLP
T4 sequence (P32245 whole entry): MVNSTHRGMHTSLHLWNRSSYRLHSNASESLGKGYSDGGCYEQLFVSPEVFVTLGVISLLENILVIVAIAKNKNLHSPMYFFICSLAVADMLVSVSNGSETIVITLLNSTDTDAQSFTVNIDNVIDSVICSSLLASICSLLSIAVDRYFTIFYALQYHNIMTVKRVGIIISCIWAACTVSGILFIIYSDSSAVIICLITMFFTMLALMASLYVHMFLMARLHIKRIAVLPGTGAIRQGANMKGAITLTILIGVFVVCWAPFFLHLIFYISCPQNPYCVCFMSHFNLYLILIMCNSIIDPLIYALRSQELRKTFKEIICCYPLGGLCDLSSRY
T2 sequence (P41145 whole entry): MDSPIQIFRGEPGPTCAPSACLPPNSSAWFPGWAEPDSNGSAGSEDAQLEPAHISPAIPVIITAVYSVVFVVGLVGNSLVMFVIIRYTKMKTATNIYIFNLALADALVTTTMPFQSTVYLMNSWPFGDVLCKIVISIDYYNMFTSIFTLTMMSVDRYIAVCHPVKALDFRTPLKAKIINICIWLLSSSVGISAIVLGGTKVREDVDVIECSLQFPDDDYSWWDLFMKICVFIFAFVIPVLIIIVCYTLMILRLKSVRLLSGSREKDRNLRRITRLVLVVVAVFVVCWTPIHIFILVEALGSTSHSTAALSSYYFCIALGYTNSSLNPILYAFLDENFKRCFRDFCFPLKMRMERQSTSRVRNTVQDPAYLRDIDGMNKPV
T3 sequence (P41968 whole entry): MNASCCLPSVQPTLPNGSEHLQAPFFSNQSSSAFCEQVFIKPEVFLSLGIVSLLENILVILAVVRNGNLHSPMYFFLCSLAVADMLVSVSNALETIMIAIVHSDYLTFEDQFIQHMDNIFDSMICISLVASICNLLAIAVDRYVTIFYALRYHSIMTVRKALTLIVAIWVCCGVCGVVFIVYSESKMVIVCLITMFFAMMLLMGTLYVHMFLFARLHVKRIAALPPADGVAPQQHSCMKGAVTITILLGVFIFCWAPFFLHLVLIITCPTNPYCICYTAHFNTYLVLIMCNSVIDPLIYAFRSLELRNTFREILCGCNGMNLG
T5 sequence (P33032 whole entry): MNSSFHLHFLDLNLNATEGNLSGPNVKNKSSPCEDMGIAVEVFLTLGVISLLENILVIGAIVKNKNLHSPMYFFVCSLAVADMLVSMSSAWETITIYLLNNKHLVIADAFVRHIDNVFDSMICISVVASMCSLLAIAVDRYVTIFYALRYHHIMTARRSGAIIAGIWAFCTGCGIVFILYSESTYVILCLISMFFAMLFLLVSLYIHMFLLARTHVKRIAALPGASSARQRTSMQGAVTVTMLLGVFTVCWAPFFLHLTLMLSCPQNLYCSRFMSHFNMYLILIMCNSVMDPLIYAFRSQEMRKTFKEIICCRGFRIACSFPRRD
T1 sequence (P41143 whole entry): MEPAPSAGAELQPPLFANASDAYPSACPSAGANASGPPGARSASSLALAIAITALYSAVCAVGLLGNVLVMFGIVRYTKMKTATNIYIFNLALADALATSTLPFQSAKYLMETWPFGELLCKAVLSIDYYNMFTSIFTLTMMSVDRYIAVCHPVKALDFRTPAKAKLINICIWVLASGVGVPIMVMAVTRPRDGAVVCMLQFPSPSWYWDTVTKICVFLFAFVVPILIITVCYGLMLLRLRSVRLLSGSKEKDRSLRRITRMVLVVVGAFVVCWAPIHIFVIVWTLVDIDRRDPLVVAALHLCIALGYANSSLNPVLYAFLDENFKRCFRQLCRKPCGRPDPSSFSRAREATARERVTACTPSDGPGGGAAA
T6 sequence (Q99705 whole entry): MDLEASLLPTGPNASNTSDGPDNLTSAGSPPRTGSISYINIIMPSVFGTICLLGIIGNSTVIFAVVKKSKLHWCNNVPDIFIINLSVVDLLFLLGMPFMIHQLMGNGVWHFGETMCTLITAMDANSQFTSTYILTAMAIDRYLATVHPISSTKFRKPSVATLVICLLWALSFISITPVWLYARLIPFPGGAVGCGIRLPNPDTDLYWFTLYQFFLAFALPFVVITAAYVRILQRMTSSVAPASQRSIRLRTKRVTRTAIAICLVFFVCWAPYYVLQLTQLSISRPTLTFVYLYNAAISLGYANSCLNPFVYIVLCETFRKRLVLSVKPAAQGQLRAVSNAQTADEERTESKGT
T8 sequence (P25103 whole entry): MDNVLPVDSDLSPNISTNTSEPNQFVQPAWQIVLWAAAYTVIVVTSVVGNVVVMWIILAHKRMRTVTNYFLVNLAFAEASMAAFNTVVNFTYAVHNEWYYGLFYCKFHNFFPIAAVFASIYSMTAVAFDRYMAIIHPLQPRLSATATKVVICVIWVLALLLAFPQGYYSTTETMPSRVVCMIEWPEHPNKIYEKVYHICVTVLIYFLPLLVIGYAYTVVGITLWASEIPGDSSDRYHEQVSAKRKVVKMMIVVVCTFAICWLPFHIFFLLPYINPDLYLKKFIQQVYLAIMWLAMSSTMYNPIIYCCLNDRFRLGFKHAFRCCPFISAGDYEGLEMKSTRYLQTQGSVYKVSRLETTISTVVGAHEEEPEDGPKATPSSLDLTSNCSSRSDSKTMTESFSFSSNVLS

COCC1OC(OCc2ccccc2)C(NC(=O)CCCNC(=N)N)C(OCc2ccccc2)C1O (stereo not shown) [compound 175]
A1 radioligand binding, percentage inhibition [1]: − (“−” indicates less than 50% inhibition at 10 μM) | A2 radioligand binding, percentage inhibition [2]: − (“−” indicates less than 50% inhibition at 10 μM) | A3 radioligand binding, percentage inhibition [3]: − (“−” indicates less than 50% inhibition at 10 μM) | A4 radioligand binding, percentage inhibition [4]: − (“−” indicates less than 50% inhibition at 10 μM) | A5 radioligand binding, percentage inhibition [5]: − (“−” indicates less than 50% inhibition at 10 μM) | A6 radioligand binding, percentage inhibition ([6]; [125I]-S36057): − (“−” indicates less than 50% inhibition at 10 μM) | A7 radioligand binding, percentage inhibition [7]: − (“−” indicates less than 50% inhibition at 10 μM) | A8 radioligand binding, percentage inhibition [8]: + (“+” indicates greater than 50% inhibition at 10 μM) | A9 radioligand binding, percentage inhibition [9]: − (“−” indicates less than 50% inhibition at 10 μM) | A10 radioligand binding, percentage inhibition [10]: − (“−” indicates less than 50% inhibition at 10 μM) | A11 radioligand binding, percentage inhibition [11]: − (“−” indicates less than 50% inhibition at 10 μM)

COCC1OC(OCc2ccc(Cl)cc2)C(NC(=O)CCCN)C(OCc2ccc(-c3ccccc3)cc2)C1O (stereo not shown) [compound 207]
A1: inhibition of radioligand binding ([1]; FlashPlate): − (“−” indicates less than 50% inhibition at 10 μM) | A2: inhibition of radioligand binding ([2]; filtration): − (“−” indicates less than 50% inhibition at 10 μM) | A3: inhibition of radioligand binding ([3]; FlashPlate): + (“+” indicates greater than 50% inhibition at 10 μM) | A4: inhibition of radioligand binding ([4]; FlashPlate): − (“−” indicates less than 50% inhibition at 10 μM) | A5: inhibition of radioligand binding ([5]; FlashPlate): + (“+” indicates greater than 50% inhibition at 10 μM) | A6: inhibition of radioligand binding ([6]; [125I]-S36057, FlashPlate): − (“−” indicates less than 50% inhibition at 10 μM) | A7: inhibition of radioligand binding ([7]; FlashPlate): − (“−” indicates less than 50% inhibition at 10 μM) | A8: inhibition of radioligand binding ([8]; filtration): + (“+” indicates greater than 50% inhibition at 10 μM) | A9: inhibition of radioligand binding ([9]; FlashPlate): − (“−” indicates less than 50% inhibition at 10 μM) | A10: inhibition of radioligand binding ([10]; FlashPlate): − (“−” indicates less than 50% inhibition at 10 μM) | A11: inhibition of radioligand binding ([11]; FlashPlate): − (“−” indicates less than 50% inhibition at 10 μM)

Reference: patent publication US20080009418A1, “Selective Inhibitors” (Alchemia LTD., priority 2004, published 2008)
